In ChEMBL document CHEMBL6182944, “Substrate Specificity of the Organic Cation Transporters MATE1 and MATE2K and Functional Overlap with OCT1 and OCT2” (J Med Chem, 2025):

Assays:
MATE1 = target: T1, MATE1 (Homo sapiens, UniProt Q96FL8); assay: in vitro
T1 sequence (Q96FL8 whole entry): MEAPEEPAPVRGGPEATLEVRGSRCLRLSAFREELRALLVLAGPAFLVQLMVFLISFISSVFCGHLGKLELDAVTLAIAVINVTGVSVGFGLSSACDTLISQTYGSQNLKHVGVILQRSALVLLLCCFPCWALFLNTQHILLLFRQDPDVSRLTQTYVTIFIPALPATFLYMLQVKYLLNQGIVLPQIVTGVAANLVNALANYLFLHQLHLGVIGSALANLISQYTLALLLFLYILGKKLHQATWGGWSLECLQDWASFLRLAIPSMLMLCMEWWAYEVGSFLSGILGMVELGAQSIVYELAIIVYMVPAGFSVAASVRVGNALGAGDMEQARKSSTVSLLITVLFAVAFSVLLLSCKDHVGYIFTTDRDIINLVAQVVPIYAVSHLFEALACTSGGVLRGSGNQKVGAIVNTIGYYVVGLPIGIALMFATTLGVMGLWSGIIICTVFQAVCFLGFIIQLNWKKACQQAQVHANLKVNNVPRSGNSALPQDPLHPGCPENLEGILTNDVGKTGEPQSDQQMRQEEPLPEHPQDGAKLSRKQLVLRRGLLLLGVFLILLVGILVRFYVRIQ

MATE2-K = target: T2, MATE2-K (Homo sapiens, UniProt Q86VL8); assay: in vitro
T2 sequence (Q86VL8 whole entry): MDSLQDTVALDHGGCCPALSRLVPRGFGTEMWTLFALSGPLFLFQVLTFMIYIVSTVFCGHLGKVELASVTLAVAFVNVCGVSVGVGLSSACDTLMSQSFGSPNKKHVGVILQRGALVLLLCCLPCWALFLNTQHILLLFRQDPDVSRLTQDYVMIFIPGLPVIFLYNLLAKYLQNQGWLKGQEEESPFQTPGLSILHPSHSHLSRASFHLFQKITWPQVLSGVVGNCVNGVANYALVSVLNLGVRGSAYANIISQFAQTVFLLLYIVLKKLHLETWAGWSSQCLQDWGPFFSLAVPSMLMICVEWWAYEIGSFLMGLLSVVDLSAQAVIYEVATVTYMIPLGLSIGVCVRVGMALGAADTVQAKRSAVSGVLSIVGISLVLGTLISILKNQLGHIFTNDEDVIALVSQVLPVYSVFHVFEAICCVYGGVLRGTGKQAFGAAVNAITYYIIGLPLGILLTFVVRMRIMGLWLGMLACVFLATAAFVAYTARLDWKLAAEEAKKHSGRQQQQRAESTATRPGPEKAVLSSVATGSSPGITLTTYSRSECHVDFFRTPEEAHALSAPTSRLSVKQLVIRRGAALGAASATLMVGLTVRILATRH

[1] = HEK293 cells expressing MATE2-K

| SMILES | uptake ratio at 1 min, 2.5 µM (MATE1; HEK293 cells expressing MATE1) | uptake ratio at 1 min, 2.5 µM (MATE2-K; [1]) | uptake ratio at 1 min, 2.5 µM (MATE1; hek293) | uptake ratio at 1 min, 2.5 µM (MATE2-K; hek293) |
| --- | --- | --- | --- | --- |
| COc1ccc(CCN)cc1 | < 2 | < 2 |  |  |
| COc1cc(CCN)ccc1O | > 2 | < 2 |  |  |
| OC(c1ccccc1)(c1ccccc1)C12CC[N+](CCOCc3ccccc3)(CC1)CC2 | > 2 | < 2 |  |  |
| NCCCCCN | < 2 | < 2 |  |  |
| O=C(O[C@H]1C[N+]2(CCCOc3ccccc3)CCC1CC2)C(O)(c1cccs1)c1cccs1 | > 2 | < 2 |  |  |
| COc1cc2c(cc1OC)-c1cc3ccc4c(c3c[n+]1CC2)OCO4 | > 2 | > 2 |  |  |
| C[C@@H]1O[C@@]2(CS1)CN1CCC2CC1 | < 2 | < 2 |  |  |
| COC(=O)[C@@H]1[C@H]2CC[C@@H](C[C@@H]1O)N2C | < 2 | < 2 |  |  |
| CNS(=O)(=O)CCc1ccc2[nH]cc(C3CCN(C)CC3)c2c1 | > 2 | > 2 |  |  |
| CC[C@@H](C(N)=O)N1CCCC1=O | < 2 | < 2 |  |  |
| CNC(C)Cc1ccc(OC)cc1 (stereo not drawn) | < 2 | < 2 |  |  |
| NCCc1cccc(O)c1 | > 2 | < 2 |  |  |
| COc1ccc(CCN)cc1O | > 2 | < 2 |  |  |
| CN1CCC[C@@H]1Cc1c[nH]c2ccc(CCS(=O)(=O)c3ccccc3)cc12 | < 2 | < 2 |  |  |
| C[N+]1(CCC(C(N)=O)(c2ccccc2)c2ccccc2)CCCCC1 | > 2 | < 2 |  |  |
| COc1ccc2[nH]c3c(c2c1)CCNC3 | < 2 | < 2 |  |  |
| CCC(Cc1ccc2c(c1)OCO2)NC (stereo not drawn) | < 2 | < 2 |  |  |
| CNCCc1c[nH]c2ccc(O)cc12 | > 2 | > 2 |  |  |
| C1CCN2C[C@H]3C[C@H](CN4CCCC[C@@H]34)[C@H]2C1 | > 2 | > 2 |  |  |

| SMILES | uptake ratio at 1 min, 2.5 µM (MATE1; HEK293 cells expressing MATE1) | uptake ratio at 1 min, 2.5 µM (MATE2-K; [1]) | uptake ratio at 1 min, 2.5 µM (MATE1; hek293) | uptake ratio at 1 min, 2.5 µM (MATE2-K; hek293) |
| --- | --- | --- | --- | --- |
| N=C(N)NCCC[C@H](NC(=O)c1ccc2ccccc2c1O)C(=O)N1CCC[C@H]1C(N)=O | > 2 | < 2 |  |  |
| CN(C)C(=N)NCCC[C@H](N)C(=O)O | < 2 | < 2 |  |  |
| CNCCc1ccccc1 | < 2 | < 2 |  |  |
| CNCCc1ccc(O)cc1 | > 2 | < 2 |  |  |
| Cc1cc(O)cc(C)c1OCC(C)N (stereo not drawn) | < 2 | < 2 |  |  |
| CNCc1ccc(CSCCN/C(=C/[N+](=O)[O-])NC)o1 | > 2 | > 2 |  |  |
| Cc1ncc(C[n+]2cccc(CCO)c2C)c(N)n1 | > 2 | > 2 |  |  |
| COc1ccc2[nH]cc(C[C@H](N)C(=O)O)c2c1 | < 2 | < 2 |  |  |
| CNCC(O)c1ccc(O)cc1 (stereo not drawn) | > 2 | < 2 |  |  |
| C[N+]12CCC(CC1)C(OC(=O)C(O)(c1ccccc1)c1ccccc1)C2 (stereo not drawn) | > 2 | < 2 |  |  |
| C[C@H](NCCc1ccc(O)cc1)[C@H](O)c1ccc(O)cc1 |  |  | > 2 | > 2 |
| C[C@@H]1Cc2c(Cl)cc(C(=O)N[C@@H](Cc3ccccc3)C(=O)O)c(O)c2C(=O)O1 [3R14S-OCHRATOXIN A] | > 2 | < 2 |  |  |
| N=C(N)NC(=N)Nc1ccc(Cl)cc1 [4-CHLOROPHENYLBIGUANIDE] | > 2 | > 2 |  |  |
| CCCC(=O)Nc1ccc(OCC(O)CNC(C)C)c(C(C)=O)c1 (stereo not drawn) [ACEBUTOLOL] |  |  | > 2 | > 2 |
| N=C(N)NCCCCN [AGMATINE] | < 2 | < 2 |  |  |
| C=CCN1CCCC1CNC(=O)c1cc2[nH]nnc2cc1OC (stereo not drawn) [ALIZAPRIDE] | > 2 | > 2 |  |  |
| CN(C)CCc1c[nH]c2ccc(CS(=O)(=O)N3CCCC3)cc12 [ALMOTRIPTAN] | > 2 | > 2 |  |  |
| Nc1ccncc1N [AMIFAMPRIDINE] | > 2 | > 2 |  |  |
| NC(N)=NCCCCN=C(N)N [ARCAINE] | > 2 | > 2 |  |  |

| SMILES | uptake ratio at 1 min, 2.5 µM (MATE1; HEK293 cells expressing MATE1) | uptake ratio at 1 min, 2.5 µM (MATE2-K; [1]) | uptake ratio at 1 min, 2.5 µM (MATE1; hek293) | uptake ratio at 1 min, 2.5 µM (MATE2-K; hek293) |
| --- | --- | --- | --- | --- |
| O=C1CCc2ccc(OCCCCN3CCN(c4cccc(Cl)c4Cl)CC3)cc2N1 [ARIPIPRAZOLE] |  |  | < 2 | < 2 |
| CC(=O)c1cc2cccc(OCC(O)CNC(C)C)c2o1 (stereo not drawn) [BEFUNOLOL] | < 2 | < 2 |  |  |
| CNCCc1ccccn1 [BETAHISTINE] |  |  | < 2 | < 2 |
| CC(C)NCC(O)COc1ccc(CCOCC2CC2)cc1 (stereo not drawn) [BETAXOLOL] |  |  | < 2 | < 2 |
| CCCCNC(=N)NC(=N)N [BUFORMIN] |  |  | > 2 | > 2 |
| O=C1CC2(CCCC2)CC(=O)N1CCCCN1CCN(c2ncccn2)CC1 [BUSPIRONE] |  |  | > 2 | < 2 |
| CCCC[N+]1(C)[C@@H]2C[C@@H](OC(=O)[C@H](CO)c3ccccc3)C[C@H]1[C@@H]1O[C@@H]12 (stereo partly drawn) [BUTYLSCOPOLAMINE] | > 2 | < 2 |  |  |
| CCN(CC)C(=O)Nc1ccc(OCC(O)CNC(C)(C)C)c(C(C)=O)c1 (stereo not drawn) [CELIPROLOL] | > 2 | > 2 |  |  |
| CN(C)CCCN1c2ccccc2Sc2ccc(Cl)cc21 [CHLORPROMAZINE] |  |  | < 2 | < 2 |
| C[N+](C)(C)CCO [CHOLINE] |  |  | < 2 | < 2 |
| CN/C(=N/CCSCc1nc[nH]c1C)NC#N [CIMETIDINE] |  |  | > 2 | > 2 |
| CC(C)(C)NCC(O)c1ccc(O)c(O)c1 (stereo not drawn) [COLTEROL] | > 2 | > 2 |  |  |
| CN(CC(=O)O)C(=N)N [CREATINE] | < 2 | < 2 |  |  |
| CC1(C)N=C(N)N=C(N)N1c1ccc(Cl)cc1 [CYCLOGUANIL] | > 2 | > 2 |  |  |
| O=c1cccc2n1C[C@@H]1CNC[C@H]2C1 [CYTISINICLINE] |  |  | > 2 | < 2 |
| COc1cccc2c1C(=O)c1c(O)c3c(c(O)c1C2=O)C[C@@](O)(C(C)=O)C[C@@H]3O[C@H]1C[C@H](N)[C@H](O)[C@H](C)O1 [DAUNORUBICIN] | < 2 | < 2 |  |  |
| Nc1ncn([C@H]2C[C@H](O)[C@@H](CO)O2)c(=O)n1 [DECITABINE] | < 2 | < 2 |  |  |
| COc1cc2c(cc1OC)-c1c(C)c3ccc(OC)c(OC)c3c[n+]1CC2 [DEHYDROCORYDALINE] | > 2 | > 2 |  |  |
| NC(N)=Nc1nc(CSCCC(N)=NS(N)(=O)=O)cs1 [FAMOTIDINE] |  |  |  | > 2 |
